Earlier results as cited in patent US8881894B2, “Multiple-compartment applicator” (Sonovia Holdings LLC, priority 2008, dated 2014).

Settings: in water

- pK of acid-ionizable hydrogen: 4.2
SMILES: O=C1O[C@H]([C@@H](O)CO)C(O)=C1O [L-Ascorbic acid]
